Experimental data published in PubChem BioAssay AID2060336 (Molecular Pharmacology Branch, DTP, NCI, 2025).

System: 958767-090-R-J1-PDC spheroid growth
Test: Anticancer human tumor 958767-090-R-J1-PDC patient-derived head and neck squamous carcinoma cell line growth inhibition [IpAb]
Details: spheroids with HUVEC and MSC; for IC50: curve of first compound; for viability, T/C: stronger effect = lower value
From the text: Combinatorial screen of targeted agents with ipatasertib and abemaciclib in multi-cell type tumor spheroids
A high-throughput screen of multi-cell type tumor spheroids was designed to identify active combinations of targeted small molecules and ipatasertib or abemaciclib. Complex spheroids include a stromal component modeled by human endothelial cells (HUVEC) and fibroblasts modeled by human mesenchymal stem cells (MSCs). The concentration ranges selected for each drug and investigational agent were based upon clinically achievable concentrations if the clinical Cmax of the agent was known.
Compounds. The drugs and investigational agents: ipatasertib (NSC767898), abemaciclib(NSC768073), selumetinib (NSC741078), trametinib (758246), adavosertib (NSC754352), everolimus (NSC733504), sapanisertib (NSC764658), vemurafenib (NSC761431), venetoclax (NSC766270), copanlisib (NSC809693), apelisib (NSC765974), palbociblib (NSC758247), vemurafenib (NSC761431), dabrafenib (NSC764134), ravoxertinib (NSC781343), BMS-387032 (NSC767048), sotorasib (NSC818433), talazoparib (NSC767125) and afursertib (NSC778305), were obtained from the National Cancer Institute (NCI) Developmental Therapeutics Program Chemical Repository. The FDA-approved anticancer drug set is available from the NCI Developmental Therapeutics Program. […] The stock solutions were prepared in dimethyl sulfoxide (DMSO, Sigma-Aldrich, St. Louis, MO, cat. D2650) at 800-fold the tested concentration and stored at -70 degrees C prior to their use. All drugs and investigational agents were tested over a range starting from a high concentration at or near the clinical Cmax and decreasing in half-log increments. If the clinical Cmax for an agent had not been determined, the highest concentration tested was 10 microM.
NCI60 Cell Culture. NCI60 cell lines were obtained from the NCI Developmental Therapeutics Program Tumor Repository. For each lot of cells, the Repository performed Applied Biosystems AmpFLSTR Identifiler testing with PCR amplification to confirm consistency with the published Identifier STR profile for each cell line. Cells were kept in continuous culture for no more than 20 passages. The optimal seeding densities for each of the cell lines at each time point assessed were determined prior to performing the concentration response studies. Briefly, the NCI60 human tumor lines were grown as monolayers in RPMI 1640 medium supplemented with 10% FBS and 2 mmol/L L-glutamine.
An additional 9 lines were from the NCI60 cell line panel including MDA-MB-231 breast carcinoma, MDA-MB-468 breast carcinoma, MCF7 breast carcinoma, Hs578T breast carcinoma, MALME-3M melanoma, SK-MEL-2 melanoma, SK-OV-3 ovarian carcinoma, DU-145 prostate carcinoma, PC-3 prostate carcinoma, all cell lines along with major genetic alterations are listed on Table 2. Pooled donor human umbilical vein endothelial cells (HUVEC, Lonza, cat. CC-2519) and human mesenchymal stem cells (hMSC, Lonza, cat. PT-2501) were purchased from Lonza (Walkersville, MD).
PDMR cell lines were grown in complete medium (DC medium): Dulbecco's modified Eagle's medium (DMEM)/F12 supplemented with 5% fetal bovine serum (FBS), 2 mM L-glutamine, 100 U/mL penicillin and 100 µg/ml streptomycin, 0.4 µg/ml hydrocortisone, 10 ng/ml epidermal growth factor (EGF) recombinant human protein, 24 µg/mL adenine, and 0.1 mg/mL primocin. During culture from frozen stock vials, PDMR cells were cultured in the same medium containing 10 µM Y-27632 (see Table 3). The PDCs were cultured in complete DMEM/F12 media without 10 microM Y-27632 dihydrochloride for at least two passages prior to the screen. The pooled donor HUVEC and hMSC were cultured in endothelial cell growth medium 2 (PromoCell, Heidelberg, Germany, cat. C-22011) and mesenchymal stem cell growth medium 2 (PromoCell, cat. C-28009), respectively. For all experiments, HUVEC and hMSC were used at passages </=5.
[…]

[1] = second compound 0.1 µM, first compound 0.0316 µM
[2] = second compound 0.1 µM, first compound 0.1 µM
[3] = second compound 0.316 µM, first compound 0.0316 µM
[4] = second compound 0.316 µM, first compound 0.1 µM
[5] = second compound 1 µM, first compound 0.0316 µM
[6] = second compound 1 µM, first compound 0.1 µM
[7] = second compound 3.16 µM, first compound 0.0316 µM
[8] = second compound 3.16 µM, first compound 0.1 µM
[9] = second compound 10 µM, first compound 0.0316 µM
[10] = second compound 10 µM, first compound 0.1 µM
[11] = second compound 0.1 µM, first compound 0.316 µM
[12] = second compound 0.1 µM, first compound 1 µM
[13] = second compound 0.1 µM, first compound 3.16 µM
[14] = second compound 0.1 µM, first compound 10 µM
[15] = second compound 0.316 µM, first compound 0.316 µM
[16] = second compound 0.316 µM, first compound 1 µM
[17] = second compound 0.316 µM, first compound 3.16 µM
[18] = second compound 0.316 µM, first compound 10 µM
[19] = second compound 1 µM, first compound 0.316 µM
[20] = second compound 1 µM, first compound 1 µM
[21] = second compound 1 µM, first compound 3.16 µM
[22] = second compound 1 µM, first compound 10 µM
[23] = second compound 3.16 µM, first compound 0.316 µM
[24] = second compound 3.16 µM, first compound 1 µM
[25] = second compound 3.16 µM, first compound 3.16 µM
[26] = second compound 3.16 µM, first compound 10 µM
[27] = second compound 10 µM, first compound 0.316 µM
[28] = second compound 10 µM, first compound 1 µM
[29] = second compound 10 µM, first compound 3.16 µM
[30] = second compound 10 µM, first compound 10 µM
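Further: spheroids exposed to agents for 7 days.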
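Wherever viability, T/C is given: 100% = DMSO vehicle control wells.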

Compound	IC50 (second compound 0.1 µM) [nM]	IC50 (second compound 0.316 µM) [nM]	IC50 (second compound 1 µM) [nM]	IC50 (second compound 3.16 µM) [nM]	IC50 (second compound 10 µM) [nM]	viability, T/C [1] [%]	viability, T/C [2] [%]	viability, T/C [3] [%]	viability, T/C [4] [%]	viability, T/C [5] [%]	viability, T/C [6] [%]	viability, T/C [7] [%]	viability, T/C [8] [%]	viability, T/C [9] [%]	viability, T/C [10] [%]	viability, T/C [11] [%]	viability, T/C [12] [%]	viability, T/C [13] [%]	viability, T/C [14] [%]	viability, T/C [15] [%]	other results
CC(C)n1nc(-c2ccc3oc(N)nc3c2)c2c(N)ncnc21 + CC(C)NCC(C(=O)N1CCN(c2ncnc3c2C(C)CC3O)CC1)c1ccc(Cl)cc1	9.11	1.82	1.13	0.83	< 0.316	32.8	32.6	37.4	33.4	29.1	25	21.1	17.2	13.6	13	–	–	–	–	–	viability, T/C (second compound 0.1 µM, first compound 0.000316 µM): 78.4%; viability, T/C (second compound 0.1 µM, first compound 0.001 µM): 72.8%; viability, T/C (second compound 0.1 µM, first compound 0.00316 µM): 53.6%; viability, T/C (second compound 0.1 µM, first compound 0.01 µM): 57.9%; viability, T/C (second compound 0.316 µM, first compound 0.000316 µM): 72.4%; viability, T/C (second compound 0.316 µM, first compound 0.001 µM): 58.5%; viability, T/C (second compound 0.316 µM, first compound 0.00316 µM): 43.5%; viability, T/C (second compound 0.316 µM, first compound 0.01 µM): 29.8%; viability, T/C (second compound 1 µM, first compound 0.000316 µM): 59.1%; viability, T/C (second compound 1 µM, first compound 0.001 µM): 51.9%; viability, T/C (second compound 1 µM, first compound 0.00316 µM): 40.7%; viability, T/C (second compound 1 µM, first compound 0.01 µM): 34%; viability, T/C (second compound 3.16 µM, first compound 0.000316 µM): 61.4%; viability, T/C (second compound 3.16 µM, first compound 0.001 µM): 47.2%; viability, T/C (second compound 3.16 µM, first compound 0.00316 µM): 37.2%; viability, T/C (second compound 3.16 µM, first compound 0.01 µM): 26%; viability, T/C (second compound 10 µM, first compound 0.000316 µM): 47.4%; viability, T/C (second compound 10 µM, first compound 0.001 µM): 42.5%; viability, T/C (second compound 10 µM, first compound 0.00316 µM): 34.6%; viability, T/C (second compound 10 µM, first compound 0.01 µM): 17%
CC1(C)CCC(CN2CCN(c3ccc(C(=O)NS(=O)(=O)c4ccc(NCC5CCOCC5)c([N+](=O)[O-])c4)c(Oc4cnc5[nH]ccc5c4)c3)CC2)=C(c2ccc(Cl)cc2)C1 + CC(C)NCC(C(=O)N1CCN(c2ncnc3c2C(C)CC3O)CC1)c1ccc(Cl)cc1	5100	3390	< 31.6	< 31.6	< 31.6	78.3	66.5	60.8	54.9	45.1	47.5	37.2	35.3	34.3	27	62.5	87.9	103	8.08	44.4	viability, T/C [16]: 44.4%; viability, T/C [17]: 60.4%; viability, T/C [18]: 4.07%; viability, T/C [19]: 40.8%; viability, T/C [20]: 36%; viability, T/C [21]: 38.2%; viability, T/C [22]: 2.04%; viability, T/C [23]: 35.6%; viability, T/C [24]: 29.3%; viability, T/C [25]: 37.1%; viability, T/C [26]: 2.03%; viability, T/C [27]: 24.2%; viability, T/C [28]: 28.8%; viability, T/C [29]: 30.7%; viability, T/C [30]: 0.98%
CCCS(=O)(=O)Nc1ccc(F)c(C(=O)c2c[nH]c3ncc(-c4ccc(Cl)cc4)cc23)c1F + CC(C)NCC(C(=O)N1CCN(c2ncnc3c2C(C)CC3O)CC1)c1ccc(Cl)cc1	> 10000	9060	5370	3950	< 31.6	93.3	89.6	67.9	78.2	68.4	61.2	59.6	56.9	46.1	50.3	94.7	95.9	86.9	73.9	74.1	viability, T/C [16]: 59.6%; viability, T/C [17]: 72.5%; viability, T/C [18]: 48.2%; viability, T/C [19]: 59.8%; viability, T/C [20]: 60.2%; viability, T/C [21]: 60.8%; viability, T/C [22]: 37.7%; viability, T/C [23]: 51%; viability, T/C [24]: 51.7%; viability, T/C [25]: 54.4%; viability, T/C [26]: 32.7%; viability, T/C [27]: 54.9%; viability, T/C [28]: 42.3%; viability, T/C [29]: 40.8%; viability, T/C [30]: 14.6%
